Assay results published in ChEMBL document CHEMBL1150977, “A quantitative analysis of kinase inhibitor selectivity” (Nat Biotechnol, 2008).

How the values were obtained:
[1] = target: MAP kinase-interacting serine/threonine-protein kinase 2 (Homo sapiens, UniProt Q9HBH9)
[2] = target: T1, Mitogen-activated protein kinase 15 (Homo sapiens, UniProt Q8TD08)
T1 sequence (Q8TD08 whole entry): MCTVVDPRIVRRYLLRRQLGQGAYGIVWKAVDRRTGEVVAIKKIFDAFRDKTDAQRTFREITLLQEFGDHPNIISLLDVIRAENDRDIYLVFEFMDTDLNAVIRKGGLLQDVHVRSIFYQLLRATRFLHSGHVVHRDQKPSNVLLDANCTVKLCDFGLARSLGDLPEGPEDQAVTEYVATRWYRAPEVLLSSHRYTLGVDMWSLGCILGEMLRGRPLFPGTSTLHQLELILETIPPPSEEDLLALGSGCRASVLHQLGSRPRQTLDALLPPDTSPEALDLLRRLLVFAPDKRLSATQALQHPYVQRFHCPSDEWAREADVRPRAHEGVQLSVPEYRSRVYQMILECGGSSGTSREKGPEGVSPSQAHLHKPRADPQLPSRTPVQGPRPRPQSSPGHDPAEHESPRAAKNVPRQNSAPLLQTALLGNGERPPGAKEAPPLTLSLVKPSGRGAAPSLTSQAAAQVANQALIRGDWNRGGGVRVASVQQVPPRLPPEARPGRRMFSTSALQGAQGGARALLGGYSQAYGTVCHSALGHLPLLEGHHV

[3] = target: T2, Dual specificity mitogen-activated protein kinase kinase 4 (Homo sapiens, UniProt P45985)
T2 sequence (P45985 whole entry): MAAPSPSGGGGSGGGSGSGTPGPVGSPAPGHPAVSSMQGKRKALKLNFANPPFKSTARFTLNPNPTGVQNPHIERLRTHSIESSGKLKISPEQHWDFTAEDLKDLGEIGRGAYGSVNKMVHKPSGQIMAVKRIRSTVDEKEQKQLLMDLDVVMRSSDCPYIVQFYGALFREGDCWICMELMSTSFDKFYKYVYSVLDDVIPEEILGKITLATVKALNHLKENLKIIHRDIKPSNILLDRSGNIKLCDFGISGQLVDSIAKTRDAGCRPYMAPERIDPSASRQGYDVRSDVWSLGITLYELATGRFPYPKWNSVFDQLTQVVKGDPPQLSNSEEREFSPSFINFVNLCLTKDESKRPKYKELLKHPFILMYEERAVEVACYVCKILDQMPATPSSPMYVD

SRSF protein kinase 1 = SRSF protein kinase 1 (Homo sapiens, UniProt Q96SB4)
Chain of SRSF protein kinase 1 (Q96SB4 whole entry): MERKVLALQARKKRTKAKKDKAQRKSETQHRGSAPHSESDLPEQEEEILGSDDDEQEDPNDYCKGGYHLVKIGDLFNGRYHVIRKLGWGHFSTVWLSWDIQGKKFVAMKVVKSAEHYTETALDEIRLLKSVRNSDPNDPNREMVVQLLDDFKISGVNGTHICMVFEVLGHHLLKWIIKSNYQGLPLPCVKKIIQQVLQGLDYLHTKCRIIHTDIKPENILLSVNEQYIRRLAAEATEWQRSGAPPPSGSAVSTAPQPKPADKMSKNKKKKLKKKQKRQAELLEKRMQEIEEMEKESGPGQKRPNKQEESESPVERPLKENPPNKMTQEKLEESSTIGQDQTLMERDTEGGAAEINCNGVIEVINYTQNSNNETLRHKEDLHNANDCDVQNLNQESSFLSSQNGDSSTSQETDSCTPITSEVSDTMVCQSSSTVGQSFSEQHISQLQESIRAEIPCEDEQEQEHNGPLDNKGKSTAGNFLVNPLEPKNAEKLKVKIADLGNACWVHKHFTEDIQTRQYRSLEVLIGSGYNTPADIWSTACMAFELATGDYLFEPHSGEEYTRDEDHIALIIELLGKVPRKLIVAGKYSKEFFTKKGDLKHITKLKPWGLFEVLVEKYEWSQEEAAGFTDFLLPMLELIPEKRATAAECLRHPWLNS

[4] = target: Mitogen-activated protein kinase kinase kinase kinase 4 (Homo sapiens, UniProt O95819)
[5] = target: MAP/microtubule affinity-regulating kinase 3 (Homo sapiens, UniProt P27448)
Chain of MAP/microtubule affinity-regulating kinase 3 (P27448 whole entry): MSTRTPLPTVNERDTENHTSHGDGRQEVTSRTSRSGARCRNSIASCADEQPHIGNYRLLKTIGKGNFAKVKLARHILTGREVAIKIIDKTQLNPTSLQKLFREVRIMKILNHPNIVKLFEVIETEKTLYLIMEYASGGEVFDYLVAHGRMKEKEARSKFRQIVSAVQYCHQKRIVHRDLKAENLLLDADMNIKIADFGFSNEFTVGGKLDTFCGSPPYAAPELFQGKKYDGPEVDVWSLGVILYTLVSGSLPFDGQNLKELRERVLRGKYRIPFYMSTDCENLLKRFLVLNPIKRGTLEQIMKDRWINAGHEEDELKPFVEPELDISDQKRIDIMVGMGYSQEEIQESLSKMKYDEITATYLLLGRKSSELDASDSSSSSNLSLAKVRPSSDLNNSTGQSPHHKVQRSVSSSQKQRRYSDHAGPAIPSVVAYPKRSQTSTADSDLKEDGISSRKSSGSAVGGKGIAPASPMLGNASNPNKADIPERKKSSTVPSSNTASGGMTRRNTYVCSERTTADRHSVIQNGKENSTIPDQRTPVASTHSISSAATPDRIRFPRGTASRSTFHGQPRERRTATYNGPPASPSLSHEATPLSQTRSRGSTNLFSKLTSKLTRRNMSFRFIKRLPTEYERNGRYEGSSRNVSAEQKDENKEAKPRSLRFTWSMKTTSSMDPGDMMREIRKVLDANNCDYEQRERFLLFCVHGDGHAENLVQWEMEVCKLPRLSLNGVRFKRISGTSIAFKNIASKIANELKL

[6] = target: T3, Interleukin-1 receptor-associated kinase 3 (Homo sapiens, UniProt Q9Y616)
T3 sequence (Q9Y616 whole entry): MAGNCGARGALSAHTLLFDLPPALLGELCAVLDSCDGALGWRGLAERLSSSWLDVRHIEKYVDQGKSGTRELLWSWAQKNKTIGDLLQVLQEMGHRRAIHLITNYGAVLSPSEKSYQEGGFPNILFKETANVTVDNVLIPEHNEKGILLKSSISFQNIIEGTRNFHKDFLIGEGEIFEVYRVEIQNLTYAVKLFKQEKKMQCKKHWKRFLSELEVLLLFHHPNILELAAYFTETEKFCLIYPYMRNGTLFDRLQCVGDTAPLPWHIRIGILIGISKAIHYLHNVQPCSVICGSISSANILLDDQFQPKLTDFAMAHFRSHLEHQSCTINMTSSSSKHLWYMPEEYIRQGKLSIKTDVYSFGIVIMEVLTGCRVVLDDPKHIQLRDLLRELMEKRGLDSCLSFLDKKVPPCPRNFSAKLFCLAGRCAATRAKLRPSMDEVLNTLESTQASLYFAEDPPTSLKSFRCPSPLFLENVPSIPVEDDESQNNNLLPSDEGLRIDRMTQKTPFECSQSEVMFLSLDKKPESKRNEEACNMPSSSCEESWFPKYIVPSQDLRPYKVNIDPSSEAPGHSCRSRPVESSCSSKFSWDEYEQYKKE

[7] = target: Calcium/calmodulin-dependent protein kinase type II subunit delta (Homo sapiens, UniProt Q13557)
Chain of Calcium/calmodulin-dependent protein kinase type II subunit delta (Q13557 whole entry): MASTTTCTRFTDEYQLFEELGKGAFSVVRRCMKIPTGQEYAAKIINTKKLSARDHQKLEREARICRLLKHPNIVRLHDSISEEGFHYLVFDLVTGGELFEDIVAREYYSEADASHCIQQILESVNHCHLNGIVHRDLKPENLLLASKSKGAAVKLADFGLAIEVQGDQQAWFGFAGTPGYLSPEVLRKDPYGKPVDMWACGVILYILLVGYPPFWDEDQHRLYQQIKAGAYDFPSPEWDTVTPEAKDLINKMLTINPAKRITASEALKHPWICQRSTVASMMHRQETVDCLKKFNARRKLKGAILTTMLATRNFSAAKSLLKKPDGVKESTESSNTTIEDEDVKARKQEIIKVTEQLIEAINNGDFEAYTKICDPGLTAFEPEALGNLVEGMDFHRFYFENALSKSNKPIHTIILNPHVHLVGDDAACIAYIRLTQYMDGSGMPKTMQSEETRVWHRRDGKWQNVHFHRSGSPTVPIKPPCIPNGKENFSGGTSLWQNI

[8] = target: T4, Serine/threonine-protein kinase STK11 (Homo sapiens, UniProt Q15831)
T4 sequence (Q15831 whole entry): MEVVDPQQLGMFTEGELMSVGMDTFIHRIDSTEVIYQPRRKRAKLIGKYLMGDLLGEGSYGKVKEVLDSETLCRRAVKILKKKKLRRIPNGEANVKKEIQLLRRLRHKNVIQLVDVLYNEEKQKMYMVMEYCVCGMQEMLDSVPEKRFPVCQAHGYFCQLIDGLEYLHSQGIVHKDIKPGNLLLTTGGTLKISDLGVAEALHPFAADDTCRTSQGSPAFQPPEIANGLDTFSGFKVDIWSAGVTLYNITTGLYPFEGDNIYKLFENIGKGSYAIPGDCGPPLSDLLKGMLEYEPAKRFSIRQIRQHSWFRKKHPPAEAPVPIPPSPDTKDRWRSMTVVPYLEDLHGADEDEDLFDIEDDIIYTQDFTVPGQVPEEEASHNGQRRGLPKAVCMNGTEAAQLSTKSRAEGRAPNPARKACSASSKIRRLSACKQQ

[9] = target: Fibroblast growth factor receptor 4 (Homo sapiens, UniProt P22455)
Chain of Fibroblast growth factor receptor 4 (P22455 whole entry): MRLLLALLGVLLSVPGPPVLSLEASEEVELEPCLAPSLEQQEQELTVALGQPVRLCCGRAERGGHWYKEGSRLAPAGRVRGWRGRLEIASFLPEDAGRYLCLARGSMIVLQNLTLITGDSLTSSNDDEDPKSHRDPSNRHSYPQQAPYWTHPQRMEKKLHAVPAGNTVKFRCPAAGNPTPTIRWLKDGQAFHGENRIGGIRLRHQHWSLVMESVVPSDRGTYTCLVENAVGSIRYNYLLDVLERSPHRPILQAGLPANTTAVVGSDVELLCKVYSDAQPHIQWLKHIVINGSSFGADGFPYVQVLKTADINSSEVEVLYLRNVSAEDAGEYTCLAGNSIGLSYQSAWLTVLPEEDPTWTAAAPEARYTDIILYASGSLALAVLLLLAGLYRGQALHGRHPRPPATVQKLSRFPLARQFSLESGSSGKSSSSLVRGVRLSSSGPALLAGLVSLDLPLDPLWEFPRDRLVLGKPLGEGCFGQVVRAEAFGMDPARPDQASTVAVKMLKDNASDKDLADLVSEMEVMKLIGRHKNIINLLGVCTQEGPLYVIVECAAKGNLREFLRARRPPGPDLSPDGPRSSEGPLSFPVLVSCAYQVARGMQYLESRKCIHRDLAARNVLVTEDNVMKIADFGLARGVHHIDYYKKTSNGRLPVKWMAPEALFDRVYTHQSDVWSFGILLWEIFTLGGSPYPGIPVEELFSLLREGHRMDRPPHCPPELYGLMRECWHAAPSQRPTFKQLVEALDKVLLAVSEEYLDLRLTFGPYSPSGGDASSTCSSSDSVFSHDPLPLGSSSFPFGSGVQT

[10] = target: Dual specificity protein kinase CLK4 (Homo sapiens, UniProt Q9HAZ1)
Chain of Dual specificity protein kinase CLK4 (Q9HAZ1 whole entry): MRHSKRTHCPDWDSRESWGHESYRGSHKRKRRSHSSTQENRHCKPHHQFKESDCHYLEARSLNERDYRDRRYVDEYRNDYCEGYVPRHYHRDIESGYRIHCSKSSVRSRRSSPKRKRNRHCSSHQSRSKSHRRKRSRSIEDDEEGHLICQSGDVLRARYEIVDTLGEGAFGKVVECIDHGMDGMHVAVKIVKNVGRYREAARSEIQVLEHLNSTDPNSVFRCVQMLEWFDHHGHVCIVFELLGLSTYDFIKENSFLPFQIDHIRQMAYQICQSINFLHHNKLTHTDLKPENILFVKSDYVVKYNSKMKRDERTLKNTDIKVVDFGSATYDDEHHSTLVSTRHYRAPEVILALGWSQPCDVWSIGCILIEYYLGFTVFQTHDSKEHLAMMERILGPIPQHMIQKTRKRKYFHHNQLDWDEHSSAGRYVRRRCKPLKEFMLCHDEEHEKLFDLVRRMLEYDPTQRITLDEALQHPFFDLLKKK

[11] = target: Serine/threonine-protein kinase 32C (Homo sapiens, UniProt Q86UX6)
Chain of Serine/threonine-protein kinase 32C (Q86UX6 whole entry): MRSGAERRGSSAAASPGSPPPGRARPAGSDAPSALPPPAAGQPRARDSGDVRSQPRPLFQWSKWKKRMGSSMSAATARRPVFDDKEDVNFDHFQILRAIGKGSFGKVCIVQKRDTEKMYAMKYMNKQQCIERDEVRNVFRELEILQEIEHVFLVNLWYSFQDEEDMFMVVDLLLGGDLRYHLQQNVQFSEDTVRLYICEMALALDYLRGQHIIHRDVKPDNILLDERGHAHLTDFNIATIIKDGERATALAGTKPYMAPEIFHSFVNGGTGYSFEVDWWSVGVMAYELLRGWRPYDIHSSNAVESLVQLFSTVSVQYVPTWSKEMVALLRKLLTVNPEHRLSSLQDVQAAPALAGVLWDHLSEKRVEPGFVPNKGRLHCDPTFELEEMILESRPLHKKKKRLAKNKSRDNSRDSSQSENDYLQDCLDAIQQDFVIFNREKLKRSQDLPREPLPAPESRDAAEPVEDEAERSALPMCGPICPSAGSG

Chain of MAP kinase-interacting serine/threonine-protein kinase 2 (Q9HBH9 whole entry): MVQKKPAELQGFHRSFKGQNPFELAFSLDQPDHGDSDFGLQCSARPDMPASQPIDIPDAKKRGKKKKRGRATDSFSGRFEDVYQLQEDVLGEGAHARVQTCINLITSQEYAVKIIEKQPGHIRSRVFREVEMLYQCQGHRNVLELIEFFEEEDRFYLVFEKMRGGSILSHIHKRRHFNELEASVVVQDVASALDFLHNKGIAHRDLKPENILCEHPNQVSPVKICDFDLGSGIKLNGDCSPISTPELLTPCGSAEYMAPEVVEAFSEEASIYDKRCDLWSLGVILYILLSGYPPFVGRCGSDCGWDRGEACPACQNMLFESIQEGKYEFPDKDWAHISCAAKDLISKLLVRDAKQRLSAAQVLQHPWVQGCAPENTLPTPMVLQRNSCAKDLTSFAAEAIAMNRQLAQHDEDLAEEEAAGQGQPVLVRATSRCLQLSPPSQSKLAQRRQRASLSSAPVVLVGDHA

Row | Structure (SMILES) | Kd [1] | Kd [2] | Kd [3] | Kd (SRSF protein kinase 1) | Kd [4] | Kd [5] | Kd [6] | Kd [7] | Kd [8] | Kd [9] | Kd [10] | Kd [11]
1 | COCC(=O)NC/C=C/c1ccc2ncnc(Nc3ccc(Oc4ccc(C)nc4)c(C)c3)c2c1 [CP-724714] | 0.84 µM | > 10 µM | > 10 µM | > 10 µM | > 10 µM | > 10 µM | > 10 µM | > 10 µM | > 10 µM | > 10 µM | > 10 µM | > 10 µM
2 | NC(=O)c1ccc(-c2nc(-c3ccc4c(c3)OCO4)c(-c3ccccn3)[nH]2)cc1 [SB-431542] | > 10 µM | > 10 µM | > 10 µM | > 10 µM | > 10 µM | > 10 µM | > 10 µM | > 10 µM | > 10 µM | > 10 µM | > 10 µM | > 10 µM
3 | Nc1nc(Nc2ccc(S(N)(=O)=O)cc2)nn1C(=O)c1c(F)cccc1F [JNJ-7706621] | > 10 µM | – | – | – | – | – | 3.4 µM | > 10 µM | > 10 µM | > 10 µM | – | > 10 µM
4 | CCOc1cc2ncc(C#N)c(Nc3ccc(F)c(Cl)c3)c2cc1NC(=O)/C=C/CN(C)C [PELITINIB] | > 10 µM | > 10 µM | > 10 µM | > 10 µM | – | > 10 µM | > 10 µM | > 10 µM | > 10 µM | > 10 µM | – | > 10 µM
5 | CCN1CCN(Cc2ccc(NC(=O)Nc3ccc(Oc4cc(NC)ncn4)cc3)cc2C(F)(F)F)CC1 [AST-487] | – | – | > 10 µM | – | – | – | – | – | – | – | – | –
6 | Oc1ccc(-c2nc(-c3ccncc3)c(-c3ccc(F)cc3)[nH]2)cc1 [SB-202190] | > 10 µM | > 10 µM | > 10 µM | > 10 µM | > 10 µM | > 10 µM | > 10 µM | > 10 µM | > 10 µM | > 10 µM | > 10 µM | > 10 µM
